Measured values as given in patent US20260014129A1, “MITOCHONDRIAL PYRUVATE METABOLISM INHIBITORS FOR TREATING CHRONIC MYELOID LEUKEMIA” (The University Court of the University of Glasgow, priority 2022, published 2026).

Legend:
CML CD34+ cells [1] = assay: LC-MS steady state metabolite analysis of primary CML CD34+ cells; type: cell-based, human
Description: (§1) Cells were counted using a CASY counter with the following parameters: E-cur 7.5-22.5, N-cur 5.25-20.5. Cell number was multiplied by peak volume (size) and this number was used to calculate volume of solvent to extract in. Cells were pelleted by centrifugation (400 RCF, 10 minutes, room temperature) at which medium was removed for YSI analysis. Cells were then washed twice with ice cold PBS (Calcium and Magnesium free: Thermo Fisher Scientific) with pulse centrifugation (12,000RCF, 15 seconds, 4° C.) used between and after washes. Cells were then extracted in LC-grade ACN:MeOH:H2O solvent (−20° C., 5:3:2) by disrupting the pellet by pipetting followed by a 5 second vortex. Finally, debris was pelleted by centrifugation (16,000RCF, 10 minutes, 4° C.), supernatant transferred to LC-MS glass vials that were stored at −80° C. until analysis.
The LC system composed of a ZIC-pHILIC column (SeQuant, 150×2.1 mm, 5 μm, Merck KGaA) with a ZIC-pHILIC guard column (SeQuant, 20×2.1 mm) with an UltiMate 3000 HPLC system (Thermo Fisher Scientific). The aqueous mobile-phase solvent was 20 mM ammonium carbonate-0.1% ammonium hydroxide solution and with acetonitrile being used for organic mobile phase. A linear biphasic LC gradient was conducted from 80% organic to 80% aqueous for 15 min for a total run time of 22 min. The column temperature was maintained at 45° C. flow rate set to 200 μL/min.
The MS used in this study was a qExactive Plus Orbitrap Mass Spectrometer (Thermo Fisher Scientific) operating in polarity switching mode. The MS set up was calibrated using a custom CALMIX in both ionization modes before analysis and a tune file targeted towards the lower m/z range was used. Full scan (MS1) data was acquired in both ionization modes in profile mode at 70,000 resolution (at m/z range 75-1000), an automatic gain control (AGC) target of 1×10^6 (max fill time of 250 ms), with spray voltages +4.5 kV (capillary +50V, tube: […], skimmer: +20V) and −3.5 kV (capillary −50V, tube: […], skimmer: −20V) and s-lens RF level of 50 for the front optics. The capillary temperature 375° C., probe temperature 50′C, sheath gas flow rate 25, auxiliary gas flow rate 15a.u. 15 and sweep gas flow rate of 1a.u.
(§2) The peak areas of different metabolites were determined using Tracefinder 4.1 software (Thermo Fisher Scientific). Metabolites were identified by accurate mass of the singly charged ion and by known retention times on the pHILIC column. A commercially available standard compound mix (Merck: MSMLS-1EA) had been analysed previously on our LC-MS system to determine accurate ion masses and retention times. The 13C labelling was determined by quantifying peak areas for the accurate mass of all isotopologues of each metabolite.
Two independent experiments were performed, data normalised to first sample in each experiment, processed through Autoplotter (56), samples as experiments, and normalised data as replicates. […] For MSDC-0160 treated samples a batch correction (to non-drug control) was used prior to analysis using Metabonalyst. Volcano plots were generated, and an FDR adjusted t-test threshold 0.1 was utilised. Note both fold changes and p-values are log transformed. Top-25 scoring metabolites are included in heatmap.

CML CD34+ cells [2] = assay: 13C stable isotope tracing (glucose, glutamine, palmitate) in primary CML CD34+ cells; type: cell-based, human
Description: For conjugation of palmitate, a 20 mM stock was made in 100% EtOH. This was incubated on a shaking heater, 60° C. until the solution clarified. The palmitate was then added to 10% BSA (ultra-fatty acid free in EBSS, Roche, 03117057001) to give a palmitate:BSA ratio of 1:3 BSA. This solution was left for 15 min in water bath (37° C.), and then added to final concentration in complete medium. For cell line experiments, the medium was RPMI with 10% dialysed FBS and 1% penicillin/streptomycin. For tracing experiments 11 mM ^13C6 glucose was added to glucose-free RPMI.
as §1, §2
Biological and technical replicates were processed through Autoplotter (56) and natural abundance was corrected for. Fraction of enrichment was calculated as m+2 and above. For CML samples treated with or without imatinib, multiple paired T-tests were conducted on Log 10 transformed values in Graphpad Prism. The correction for multiple comparisons was the two-stage step-up method of Benjamini, Krieger and Yekutieli with an FDR (Q) value of 10%. For volcano plots Log 10 FC vs Log 10 (q value) are plotted with q values>5% in red and >10% in blue. For normal vs CML comparisons, the process was the same with the exception that unpaired t-tests were used. For PC activity in normal vs CML, this is denoted by fraction m+3. For imatinib vs untreated we look at relative activity to PDH. IE., the m+3/m+2 ratio and conducted multiple t-tests with correction for multiple comparisons being the two-stage step-up method of Benjamini, Krieger and Yekutieli with an FDR (Q) value of 10%.

CML CD34+ cells [3] = assay: Colony forming cell (CFC) assay of CML CD34+ cells; type: cell-based, human; conditions: 72 hours, n=6 CML patients
normal CD34+ cells = assay: Colony forming cell (CFC) assay of normal CD34+ cells; type: cell-based, human; conditions: 72 hours, n=3 healthy donors
[4] = Body weight of xenografted NRG-W41 mice during treatment; conditions: 4 weeks
Description: For in vivo engraftment, 1 million CML CD34^+ cells, were transplanted via tail vein into sublethally irradiated (2.5Gy) female NRG-W41 (NOD.Cg-Rag1^tm1MomKit^W-41JIl2rg^tm1Wjl)) mice aged 8-10 weeks. Mice were housed under conditions of alternating 12 hours light and 12 hours darkness, at 20-24° C., 45-65% humidity, with feeding (LBS biotech: SDS Cat #SDS801730) and water ad libitum.
For treatment with imatinib plus MSDC-0160, eight weeks following transplant, drug treatment was started with both imatinib (LC Laboratories, Cat #1-5508) dosed at 100 mg/kg/day (50 mg per kg body weight BID) oral gavage and MSDC-0160 (30 mg/kg; oral gavage once daily). Treatment was given for 4 weeks.

phospho-CRKL = assay: Western blot of phospho-CRKL in CML patient samples; type: cell-based, human; conditions: imatinib, two patient samples
Description: (§3) Cells were lysed in RIPA buffer containing mini-Complete protease inhibitor cocktail and phosphatase inhibitors (both Roche). Total protein concentration was quantified using a Pierce BCA kit (Thermo Fisher Scientific: 23227). Equal amounts of protein (5-7.5 μg) were heated at 95° C. for 5 min and separated (120V) in 4-12% gels (Novex) for SDS-PAGE. Proteins were transferred onto PDVF membranes (Thermo Fisher Scientific: 21882) then blocked in 2% BSA (in Tris-buffered saline, 0.01% Tween (TBS-T)) for one hour. Next, membranes were incubated overnight at 4° C. with the primary antibodies. The membranes were rinsed three times with TBS-T, then incubated with secondary HRP-linked antibodies (1:10,000) for 1 hour at room temperature. The SuperSignal West Femto Maxi detection system was used (Thermo Fisher Scientific: 34095) and imaging was carried out using a LI-COR Odyssey Fc gel-doc system.

phospho-AMPK = assay: Western blot of AMPK and phospho-AMPK in CD34+ CML cells; type: cell-based, human; conditions: imatinib-treated patient samples, 24 hours
Description: as §3

CML CD34+ cells [5] = assay: Proliferation (cell doubling time) and apoptosis (Annexin V/7-AAD) of primary CML CD34+ cells; conditions: imatinib 2 μM
[6] = imatinib 2 μM, 48 hours, CML CD34+ cells

In the case of `CCc1ccc(C(=O)COc2ccc(CC3SC(=O)NC3=O)cc2)nc1` (stereo not drawn) [MSDC-0160], the “dose at which steady state analysis showed significant metabolic changes” value (CML CD34+ cells [1]; primary CML CD34+ samples, 24 hours, highest dose) is reported as 100 µM, the “m+2 and m+3 fractions of TCA cycle metabolites” value (CML CD34+ cells [2]; 20 or 100 μM MSDC-0160, primary CML CD34+ samples) is reported as “significant decreases to both m+2 and m+3 fractions” and the “inhibition of glucose oxidation in primitive CD34+CD38- population” value (CML CD34+ cells [2]; compared with CD34+CD38+ progenitor population, data not shown) is reported as “to a similar extent as in the CD34^+CD38^+ progenitor population”. For the same molecule, the “inhibition of labelling in stromal co-culture” value (CML CD34+ cells [2]; presence of stromal cells, 24-hour culture, 50 uM) was “also achieved in the presence of stromal cells”, the “total glucose contribution and m+3 contribution to TCA cycle metabolites” value (CML CD34+ cells [2]; primary CML CD34+ samples, 24 hours) was “reduced both total glucose contribution and m+3 contribution to TCA cycle metabolites in a dose-dependent manner” and the “dose required to fully inhibit labelling” value (CML CD34+ cells [2]; primary CML CD34+ samples, medium with Albumax II) was 100 µM. For the same molecule, the “number of colonies, MSDC-0160 added to imatinib” value (CML CD34+ cells [3]; 20 or 50 μM MSDC-0160 plus 2 μM imatinib) was “further concentration-dependent reduction”, the “CFC potential of normal CD34+ cells, single agent” value (normal CD34+ cells) was “no significant effect” and the “CFC potential of normal CD34+ cells, combination treatment” value (normal CD34+ cells; MSDC-0160 plus 2 μM imatinib) was “no significant effect”. The “tolerability (body weight throughout the study), single agent arms” value ([4]; imatinib 50 mg/kg BID or MSDC-0160 30 mg/kg/day, oral gavage) was “well tolerated” and the “tolerability (body weight throughout the study), combination arm” value ([4]; imatinib 50 mg/kg BID plus MSDC-0160 30 mg/kg/day) was “well tolerated”.
With `Cc1ccc(NC(=O)c2ccc(CN3CCN(C)CC3)cc2)cc1Nc1nccc(-c2cccnc2)n1` [imatinib] the phospho-CRKL protein level (phospho-CRKL) was “decreased”, the “AMPK and phospho-AMPK protein levels” value (phospho-AMPK) was “variable depending on patient sample” and the ATP levels (CML CD34+ cells [1]; imatinib 2 μM, 48 hours) was “trend towards reduced ATP levels”. For the same molecule, the “oxidative stress, cellular redox and TCA cycle metabolites, steady state” value (CML CD34+ cells [1]; imatinib 2 μM, 48 hours) was “decreases”, the AMP/ATP ratio (CML CD34+ cells [1]; imatinib 2 μM, 48 hours, n=4 patient samples) was “significant increase in AMP/ATP ratio” and the “glucose incorporation (13C-glucose labelling) in sorted CML CD34+CD38- cells” value (CML CD34+ cells [2]; imatinib 2 μM, 24 hours, n=3) was “statistically significant reduction”. The “relative PC/PDH activity in CML CD34+CD38- cells” value (CML CD34+ cells [2]; imatinib 2 μM, 24 hours, n=3, p-value=0.0870) was “increased in all three patient samples”, the “PC relative to PDH contribution of glucose (m+3/m+2 ratio in malate, citrate, aspartate)” value (CML CD34+ cells [2]; [6]) was “increased” and the “glucose contribution to metabolite fraction labelling (13C6 glucose)” value (CML CD34+ cells [2]; [6]) was “reduced”. For the same molecule, the “glutamine contribution to metabolite fraction labelling (13C5 glutamine)” value (CML CD34+ cells [2]; [6]) was “reduced”, the “palmitate contribution to metabolite fraction labelling (13C16 palmitate)” value (CML CD34+ cells [2]; [6]) was “not significantly different” and the “labelled fractions of TCA cycle metabolites affected” value (CML CD34+ cells [2]; imatinib, primary CML CD34+ samples, not shown) was “only affected m+2 fractions”. The number of colonies (CML CD34+ cells [3]; 2 μM imatinib alone) was “reduced the number of colonies”, the “CFC potential of normal CD34+ cells, single agent” value (normal CD34+ cells) was “no significant effect” and the “cell proliferation (cell doubling time)” value (CML CD34+ cells [5]; primary CML CD34+ cells in Plasmax, p-value=0.0659) was “inhibited cell proliferation”. The level of apoptosis (CML CD34+ cells [5]; primary CML CD34+ cells, p-value=0.081) was “modest, sample-dependent increase in the level of apoptosis”.
